Experiments:
Assay type in all cases: cell-based, human
MM1s and NCI-H929 cells = assay: Cell cycle analysis by flow cytometry; settings: 48 hr of transfection after nocodazole synchronization; scrambled-transfected ~30%
Procedure: FIG. 3G, FIG. 3H, FIG. 31, FIG. 3J: Flow cytometry analysis in MM1s (FIG. 3G), NCI-H929 (FIG. 3H) and KMS28BM (FIG. 31) cells (miR-192, miR-194, miR-215 and Scr transfected) at 48 hr of transfection, after first being arrested and synchronized in G2/M phase by Nocodazole for 16 hr. Apoptosis in KMS28BM was evaluated by caspase-3 activity (FIG. 3J). All experiments were performed in triplicate ±SD.
Nocodazole was (Sigma-Aldrich) was dissolved in DMSO as a stock solution of 10 mg/ml for cell cycle arrest in G2/M phase. Cells were first arrested and synchronized in G2/M phase by growth in 80 nM nocodazole for 16 hr. Cells were then washed and fresh medium added. After 6 hr, cell cycle analysis was performed by propidium iodide staining. Corresponding amounts of DMSO alone were added in control experiments. […] For DNA content analysis, cells were fixed in methanol at −20° C., washed again, rehydrated, re-suspended in PBS containing 50 μg/ml propidium iodide (PI) and 50 μg/ml RNase A, and analyzed by flow cytometry (Becton Dickinson). […] After the treatment the cells were analyzed using Caspase-Glo 3 Assay kit (Promega) according to the manufacturer's instructions. Continuous variables were expressed as mean values ± standard deviation (s.d.).

[1] = tested on: p53, MDM2, p21 and Puma in MM1s cells; assay: Western blot and densitometry in miRNA-transfected cells treated with MI-219; settings: for p53 protein in cells not treated with MI-219: forced miRNA expression, untreated MM1s cells, p<0.05; for p53 re-expression with p21 and Puma up-regulation: miRNA-transfected MM1s cells, 24 hr of 2.5 μM MI-219
Procedure: FIG. 5A: Effects of miR-192, miR-194 and miR-215 on endogenous p53, p21 and MDM2 levels (Western blots) in MM1s cells treated with MI-219 at different concentrations.
FIG. 5B: Densitometric analysis only for p53 in untreated cells and for p53 and MDM2 protein levels in 2.5, 5 and 10 μM MI-219-treated cells. All experiments were performed in triplicate ±SD.
(§1) Samples were extracted in 15 mM Tris.Cl, pH 7.5/120 mM NaCl/25 mM KCl/2 mM EGTA/0.1 mM DTT/0.5% Triton X-100/[…] leupeptin/0.5 mM PMSF. Total protein (35 μg) from each sample was separated on a 4-20% Tris-HCl-Criterion precast gel Bio-Rad (cat#345-0032, Hercules, Calif.) and transferred to a poly(vinylidene difluoride) filter (Millipore). The filter was blocked in 5% nonfat dry milk, incubated with the specific antibody, washed, and probed with secondary antibody IgG conjugated to horseradish peroxidase (Santa Cruz Biotechnology), and developed with enhanced chemiluminescence (Amersham Pharmacia). Immunoblot analyses were performed using the following antibodies: p53 (sc-53394, Santa Cruz Biotechnology), MDM2 (sc-965, Santa Cruz Biotechnology), phospho-MDM2 (Cat#3521, Cell Signaling), c-MYC (cs-40, Santa Cruz Biotechnology), IGF-1 (sc-9013, Santa Cruz Biotechnology), IGF-1R (Cat#3027, Cell Signaling), total-Akt (Cat#9272, Cell signaling), phospho-Akt (Cat#4060, Cell Signaling), total-S6 (Cat#2217, Cell Signaling), phospho-S6 (Cat#2211, Cell Signaling), p21 (sc-817, Santa Cruz Biotechnology), α-PUMA (Cat#4976, Cell Signaling), GAPDH (Cat#2118, Cell Signaling). Filters were reprobed with enzyme-conjugated antibodies to GFP and β-actin (Santa Cruz Biotechnology).
(§2) MM cells (from MM subjects or from cell lines) non-transfected or transfected with pre- or ASOs miR-192, miR-215, miR-194 and Scr sequence as described above, were treated with MDM2 inhibitor (Nutlin3a and MI-219). Fresh CD138+ primary PCs isolated from new diagnosed MM subjects as previously described were maintained in culture for 24 hr and then treated for 24 hr with 10 μM Nutlin-3a (Cayman Chemical Company) or vehicle (DMSO). For transfected cells at 24 hrs after transfection MM cells were treated with 10 μM Nutlin-3a (Cayman Chemical Company) or DMSO vehicle only at different time points. MMIS cells were also treated with MI-219 solution (10% PEG400/3% Cremophor EL/87% 1×PBS) or only vehicle (10% PEG400/3% Cremophor EL/87% 1×PBS) at different concentration (2.5, 5 and 10 μM) for 24 hr and collected for RNA and protein extractions.

[2] = tested on: p53, MDM2 and p21 in MM1s and NCI-H929 cells; assay: Western blot of p53, MDM2, p21 after miRNA or ASO transfection and Nutlin-3a; settings: 72 hr after transfection, 12 hr Nutlin-3a (10 μM); for expression of MDM2 protein: both cell lines; for level of p53 and p21: vs Scr-transfected cells, p<0.001
Procedure: FIG. 4A: MM1s and NCIH929 cells (pre-miRNA-192, pre-miRNA-194, pre-miRNA-215, Scr sequence-transfected) were harvested at 72 hr after transfection and 12 hr Nutlin-3a treatment (10 μM). Whole cell lysates were subjected to Western blotting using p53, MDM2, p21, and Gapdh antibodies. Densitometric analysis showing the effect of miR-194 (white bars), miR-192 (grey bars), miR-215 (black bars) compared to Scr sequence (green bars) transfected cells of endogenous p53, MDM2 and p21 in MM1s (FIG. 4B) and NCI-H929 (FIG. 4C) Nutlin-3a treated.
FIG. 4D: Immununoblot analysis showing p53, MDM2 and p21 protein expression after 48 hr of miR192, miR-194, miR-215 (pool) and Scr ASOs transfection in MM1s and NCI-H929 cells after 12 hr of treatment with 10 μM Nutlin-3a.
as §1
as §2, with “MMIS cells were also treated with MI-219 solution (10% PEG400/3% Cremophor EL/87% 1×PBS) or only vehicle (10% PEG400/3% Cremophor EL/87% 1×PBS) at different concentration (2.5, 5 and 10 μM) for 24 hr and collected for RNA and protein extractions.” left out

| Substance | cells in G0/G1 arrest (MM1s and NCI-H929 cells) | p53 protein in cells not treated with MI-219 [1] | p53 re-expression with p21 and Puma up-regulation [1] | expression of MDM2 protein [2] | level of p53 and p21 [2] |
| --- | --- | --- | --- | --- | --- |
| miR-192: microRNA, p53-activated, down-regulated in MM; transfected as miRNA precursor (Ambion) or lentivector; SEQ ID NO:56 (CUGACCUAUGAAUUGACAGCC; listed as RNA, chemistry not given here; listed as Homo sapiens) | ~60% | p53 became detectable | Dramatic p53 re-expression | dramatically decreased | significantly increased |
| miR-215: microRNA, p53-activated, down-regulated in MM; transfected as miRNA precursor (Ambion) or lentivector; SEQ ID NO:58 (AUGACCUAUGAAUUGACAGAC; listed as RNA, chemistry not given here; listed as Homo sapiens) | ~60% | p53 became detectable | Dramatic p53 re-expression | dramatically decreased | significantly increased |

Source: patent US20130150430A1, “Methods for Impairing the P53/HDM2 Auto-Regulatory Loop in Multiple Myeloma Development Using mIR-192, mIR-194 and mIR-215” (THE OHIO STATE UNIVERSITY, priority 2011, published 2013)
